Measured values reported in patent US12472168B2, “Ring-fused thiazolino 2-pyridones, methods for preparation thereof and their use in the treatment and/or prevention of a disease involving gram-positive bacteria” (Quretech Bio AB, priority 2017, dated 2025).
Converted amounts (≈) assume the structure as drawn.

What was measured:
[1] = tested on: Streptococcus; assay: MIC and MBC assays; assay type: cell-based; settings: compound alone, no antibiotic
Procedure: (§1) MIC was defined by the lowest concentration of the test compound that inhibits visible growth of pathogen of interest. The optical density of the pathogen of interest culture was measured by OD600.
(§2) MBC was determined colony forming units (CFUs) enumeration by serially diluting and plating bacterial cultures on BHI plates.
(§3) Thus, no antibiotic was used in Table 2.

[2] = tested on: E. faecalis; assay: MIC and MBC assays; assay type: cell-based; settings: Enterococcus faecalis, compound alone, no antibiotic; for MIC: overnight (18 hrs)
Procedure: as §1, §2, §3

[3] = tested on: MRSA; assay: Minimum Inhibitory Concentration (MIC) and Minimum Bactericidal Concentration (MBC) assays; assay type: cell-based, Methicillin-resistant Staphylococcus aureus; settings: Staphylococcus aureus, compound alone, no antibiotic; for MIC: 18 h, overnight (18 hrs), read-out: MIC
Procedure: as §1, §2, §3

[4] = tested on: E. faecalis OG1RF; assay: Stand alone activity in vivo, mouse model of catheter-associated urinary tract infection (CAUTI); set-up: species or system Enterococcus faecalis; settings: C57BL/6Ncr mice, 10 mg/kg intraperitoneally 24 hours post-infection, sacrificed 48 hours post-infection, compound alone
Procedure: Mice used in this study were six-week-old female wild-type C57BL/6Ncr mice. Mice were anesthetized by inhalation of isoflurane and implanted with a 5-mm length of platinum-cured silicone catheter. Then, mice were infected immediately following catheter implantation with 50 μl of ˜2×10^7 CFU of E. faecalis OG1RF in PBS (1 mL) was introduced in the bladder lumen by transurethral inoculation. […] Mice were sacrificed at 48 hours post-infection by cervical dislocation after anaesthesia inhalation, and the bladders were aseptically harvested. Subsequently, the silicone implant was retrieved from the bladder. Catheters were placed in 1×PBS (1 mL), sonicated for 10 min, to detach E. faecalis and bladders were homogenized in 1×PBS (1 mL).
Mice used in this study were six-week-old female wild-type C57BL/6Ncr mice. Mice were anesthetized by inhalation of isoflurane and implanted with a 5-mm length of platinum-cured silicone catheter.
Mice were sacrificed at 48 hours post-infection by cervical dislocation after anaesthesia inhalation, and the bladders were aseptically harvested. Subsequently, the silicone implant was retrieved from the bladder. Catheters were placed in 1×PBS (1 mL), sonicated for 10 min, to detach E. faecalis and bladders were homogenized in 1×PBS (1 mL). For bacterial enumeration on catheters and bladder, samples were serially diluted and plated on BHI for CFU enumeration.

[5] = tested on: C. diff; assay: MIC and MBC assays; assay type: cell-based, Clostridium difficile; settings: Clostridioides difficile, compound alone, no antibiotic; for MIC: overnight (18 hrs)
Procedure: (§4) […]. MIC was defined by the lowest concentration of the test compound that inhibits visible growth of pathogen of interest. The optical density of the pathogen of interest culture was measured by OD600.
(§5) […]. MBC was determined colony forming units (CFUs) enumeration by serially diluting and plating bacterial cultures on BHI plates.
(§6) . Thus, no antibiotic was used in Table 2.

[6] = tested on: Staph. aureus; assay: MIC and MBC assays; assay type: cell-based; settings: Staphylococcus aureus, compound alone, no antibiotic; for MIC: overnight (18 hrs)
Procedure: as §4, §5, §6

[7] = tested on: Strep. pyogenes; assay: MIC and MBC assays; assay type: cell-based; settings: Streptococcus pyogenes, compound alone, no antibiotic; for MIC: overnight (18 hrs)
Procedure: as §4, §5, §6

[8] = tested on: Staph. saphyticus; assay: MIC and MBC assays; assay type: cell-based; settings: Staphylococcus, compound alone, no antibiotic; for MIC: overnight (18 hrs)
Procedure: as §4, §5, §6

[9] = tested on: MRSA; assay: Effect of combination with Oxacillin on MRSA, CFU counts; assay type: cell-based, Methicillin-resistant Staphylococcus aureus; settings: Oxacillin 9 μM and DMSO (no test compound), 37° C. 18 h
Procedure: The mixture (200 μL) was incubated at 37° C. for 18 h. A control without the test compound was performed in the same way.

With `CCCOc1ccc(-c2sc3c(OC)c(Cc4cccc5ccccc45)cc(=O)n3c2C(=O)O)cc1C` [Example 10, 5-Methoxy-4-[(1-naphthyl)methyl]-2-oxo-8-(4-propoxy-3-methyl-phenyl)-7-thia-1-azabicyclo[4.3.0]nona-3,5,8-triene-9-carboxylic acid] the MBC [1] was 5 µM (≈ 2.57 µg/mL), the MBC [2] was 50 µM (≈ 25.7 µg/mL) and the MIC [2] was 188 µM (≈ 96.6 µg/mL). It also gave an MIC [3] of 17 µM (≈ 8.73 µg/mL) and an MBC [3] of 17 µM (≈ 8.73 µg/mL).
For `CCCCCOc1ccc(-c2sc3c(C4CC4)c(Cc4cccc5ccccc45)cc(=O)n3c2C(=O)O)cc1` [Example 12, 5-Cyclopropyl-4-[(1-naphthyl)methyl]-2-oxo-8-[p-(pentyloxy)phenyl]-7-thia-1-azabicyclo[4.3.0]nona-3,5,8-triene-9-carboxylic acid], the MBC [1] was 2 µM (≈ 1.08 µg/mL), the MIC [2] was 300 µM (≈ 161 µg/mL) and the MIC [3] was 70 µM (≈ 37.6 µg/mL). The MBC [3] was 25 µM (≈ 13.4 µg/mL).
Molecule `CCCCOc1ccc(-c2sc3c(C4CC4)c(Cc4cccc5ccccc45)cc(=O)n3c2C(=O)O)cc1` [Example 13, 8-(p-Butoxyphenyl)-5-cyclopropyl-4-[(1-naphthyl)methyl]-2-oxo-7-thia-1-azabicyclo[4.3.0]nona-3,5,8-triene-9-carboxylic acid] has an MBC [1] of 3 µM (≈ 1.57 µg/mL), an MIC [2] of 300 µM (≈ 157 µg/mL) and an MIC [3] of 31 µM (≈ 16.2 µg/mL). For the same molecule, the MBC [3] was 25 µM (≈ 13.1 µg/mL).
In the case of `COc1c(Cc2cccc3ccccc23)cc(=O)n2c(C(=O)O)c(-c3ccc(OCCCC(C)C)c(C)c3)sc12` [Example 23, 8-[4-(Isohexyloxy)-3-methyl-phenyl]-5-methoxy-4-[(1-naphthyl)methyl]-2-oxo-7-thia-1-azabicyclo[4.3.0]nona-3,5,8-triene-9-carboxylic acid], the MIC [2] was over 100 µM, the MIC [3] was 45 µM (≈ 25 µg/mL) and the “reduction of bacterial titers in the bladder” value (shortened to “reduction … in the bladder”) [4] was “about 1.5 log units”. The “reduction of bacterial titers on the catheters” value (“reduction … on the catheters” for short) [4] was “about 0.4 log units”.
Molecule `O=C(O)c1c(Cc2ccccc2)sc2c(C3CC3)c(Cc3cccc4ccccc34)cc(=O)n12` [Example 28, 8-Benzyl-5-cyclopropyl-4-[(1-naphthyl)methyl]-2-oxo-7-thia-1-azabicyclo[4.3.0]nona-3,5,8-triene-9-carboxylic acid] has an MBC [5] of 50 µM (≈ 23.3 µg/mL), an MIC [5] of 50 µM (≈ 23.3 µg/mL) and an MBC [2] of 100 µM (≈ 46.6 µg/mL). It also gave an MIC [2] of 25 µM (≈ 11.6 µg/mL), an MIC [3] of 25 µM (≈ 11.6 µg/mL) and an MBC [3] of 50 µM (≈ 23.3 µg/mL). The MBC [6] was 50 µM (≈ 23.3 µg/mL), the MIC [6] was 25 µM (≈ 11.6 µg/mL) and the MBC [7] was 25 µM (≈ 11.6 µg/mL). The MIC [7] was 12.5 µM (≈ 5.82 µg/mL), the MBC [8] was 25 µM (≈ 11.6 µg/mL) and the MIC [8] was 100 µM (≈ 46.6 µg/mL). For the same molecule, the “reduction … in the bladder” value [4] was “about 0.5 log units” and the “reduction … on the catheters” value [4] was “about 0.4 log units”.
For `Cc1cccc(-c2sc3c(C4CC4)c(Cc4cccc5ccccc45)cc(=O)n3c2C(=O)O)c1` [Example 30, 5-Cyclopropyl-4-[(1-naphthyl)methyl]-2-oxo-8-(m-tolyl)-7-thia-1-azabicyclo[4.3.0]nona-3,5,8-triene-9-carboxylic acid], the MBC [5] was 50 µM (≈ 23.3 µg/mL), the MIC [5] was 50 µM (≈ 23.3 µg/mL) and the MBC [1] was 19 µM (≈ 8.85 µg/mL). The MBC [2] was 100 µM (≈ 46.6 µg/mL), the MIC [2] was 50 µM (≈ 23.3 µg/mL) and the MIC [3] was 25 µM (≈ 11.6 µg/mL). For the same molecule, the MBC [3] was 50 µM (≈ 23.3 µg/mL), the MBC [6] was 50 µM (≈ 23.3 µg/mL) and the MIC [6] was 50 µM (≈ 23.3 µg/mL). For the same molecule, the MBC [7] was 12.5 µM (≈ 5.82 µg/mL), the MIC [7] was 25 µM (≈ 11.6 µg/mL) and the MBC [8] was 12.5 µM (≈ 5.82 µg/mL). The MIC [8] was 100 µM (≈ 46.6 µg/mL), the “reduction … in the bladder” value [4] was “about 1.5 log units” and the “reduction … on the catheters” value [4] was “about 1 log units”.
Molecule `O=C(O)C1CSc2c(-c3cccc(C(F)(F)F)c3)c(Cc3c4ccccc4cc4ccccc34)cc(=O)n21` (centres unmarked) [Example 37, 6-[(9-Anthryl)methyl]-4-oxo-7-[m-(trifluoromethyl)phenyl]-1-thia-3a-aza-3-indancarboxylic acid] has an MBC [5] of 50 µM (≈ 26.6 µg/mL), an MIC [5] of 50 µM (≈ 26.6 µg/mL) and an MBC [2] of 400 µM (≈ 213 µg/mL). For the same molecule, the MIC [2] was 100 µM (≈ 53.2 µg/mL), the MIC [3] was 25 µM (≈ 13.3 µg/mL) and the MBC [3] was 25 µM (≈ 13.3 µg/mL). For the same molecule, the MBC [6] was 50 µM (≈ 26.6 µg/mL), the MIC [6] was 50 µM (≈ 26.6 µg/mL) and the MBC [7] was 12.5 µM (≈ 6.64 µg/mL). The MIC [7] was 12.5 µM (≈ 6.64 µg/mL), the MBC [8] was 25 µM (≈ 13.3 µg/mL) and the MIC [8] was over 500 µM.
`O=C(O)C1CSc2c(-c3cccc(C(F)(F)F)c3)c(Cc3cccc4ccccc34)cc(=O)n21` (centres unmarked) [Example 38, 6-[(1-Naphthyl)methyl]-4-oxo-7-[m-(trifluoromethyl)phenyl]-1-thia-3a-aza-3-indancarboxylic acid] was tested, and the MBC [5] was 200 µM (≈ 96.3 µg/mL), the MIC [5] was 200 µM (≈ 96.3 µg/mL) and the MBC [2] was 250 µM (≈ 120 µg/mL). The MIC [2] was 200 µM (≈ 96.3 µg/mL), the MIC [3] was 200 µM (≈ 96.3 µg/mL) and the MBC [3] was 250 µM (≈ 120 µg/mL). It also gave an MBC [6] of 250 µM (≈ 120 µg/mL), an MIC [6] of 200 µM (≈ 96.3 µg/mL) and an MBC [7] of 50 µM (≈ 24.1 µg/mL). For the same molecule, the MIC [7] was 50 µM (≈ 24.1 µg/mL), the MBC [8] was 50 µM (≈ 24.1 µg/mL) and the MIC [8] was 250 µM (≈ 120 µg/mL).
With `O=C(O)C1C(c2ccccc2)Sc2c(-c3ccc4c(c3)OCO4)c(COc3cccc4ccccc34)cc(=O)n21` (centres unmarked) [Example 39, 6-[(1-Naphthyloxy)methyl]-4-oxo-2-phenyl-7-(1,3-Dioxa-5-indanyl)-1-thia-3a-aza-3-indancarboxylic acid] the MBC [5] was 100 µM (≈ 55 µg/mL), the MIC [5] was 100 µM (≈ 55 µg/mL) and the MBC [2] was 900 µM (≈ 495 µg/mL). For the same molecule, the MIC [2] was 400 µM (≈ 220 µg/mL), the MIC [3] was 50 µM (≈ 27.5 µg/mL) and the MBC [3] was 50 µM (≈ 27.5 µg/mL). It also gave an MBC [6] of 200 µM (≈ 110 µg/mL), an MIC [6] of 50 µM (≈ 27.5 µg/mL) and an MBC [7] of 25 µM (≈ 13.7 µg/mL). The MIC [7] was 12.5 µM (≈ 6.87 µg/mL), the MBC [8] was 25 µM (≈ 13.7 µg/mL) and the MIC [8] was over 500 µM.
With `COc1c(Cc2cccc3ccccc23)cc(=O)n2c(C(=O)O)c(-c3ccc(OCCCC(C)C)c(C)c3)sc12` [Example 50, 1H-imidazol-1-ium 8-methoxy-2-(3-methyl-4((4-methylpentyl)oxy)phenyl)-7-(naphtalen-1-ylmethyl)-5-oxo-thiazolo[3,2-a]pyridine-3-carboxylate] the “reduction … in the bladder” value ([4]; 10 mg/kg) was “about 0.5 log units”.
Work on `Cc1onc(-c2ccccc2)c1C(=O)N[C@@H]1C(=O)N2[C@@H]1SC(C)(C)[C@@H]2C(=O)O` [Oxacillin, oxacillin, reference compound] yielded a CFUs/ml ([9]; MRSA OD 0.001) of 600 CFUs/ml, a CFUs/ml ([9]; MRSA OD 0.1) of 1.6E+10 CFUs/ml and a CFUs/ml ([9]; MRSA OD 1) of 2.2E+09 CFUs/ml.
